The text below walks through data of patent publication US20160243254A1, “Theranostic Nanoprobes for Overcoming Cancer Multidrug Resistance and Methods” (Massachusetts Institute of Technology, priority 2015, published 2016).

The test system of assay [1] is resistant MDA-MB-231 cells. As to the kind of experiment: MTT cell viability assay. Conditions: 5-FU resistant MDA-MB-231 cells compared to parental cells. The class given is cell-based. As to the method:
Briefly, a standard MTT [3-(4,5-dimethylthiazol-2-yl)-2,5-diphenyltetrazoliumbromide] reduction assay was performed to determine the resistance status of the cells and the cytotoxicity of the gold nanobeacons.
Cells were seeded at a density of 1×10^5 cells per well in 24-well culture plates in complete DMEM (500 μL) with serum. After 24 hours of exposure, the medium was removed and the cells were washed twice with sterile PBS and 300 μL of fresh medium with serum was added. Then 16.7 μL of sterile MTT stock solution (5 mg/mL in PBS) was added to each well.
After incubation for an additional 2 hours, the medium was removed and the formazan crystals were resuspended in 300 μL of dimethyl sulfoxide (Sigma-Aldrich, USA). The solution was mixed and its absorbance was measured at 540 nm as a working wavelength and 630 nm as reference using a microplate reader (Varioskan Flash Multimode Reader, Thermo Scientific, MA, USA). The cell viability was normalized to that of cells cultured in the culture medium with PBS treatment.
In order to corroborate confocal and flow cytometry data and overcome 5-FU resistance, resistant MDA-MB-231 cells were incubated with increasing amounts of dark-gold nanobeacons with and without 5-FU, and evaluated by the imaging system IVIS®.
Background: Tetrazolium assays rely on reduction of a dye to a coloured formazan, in cell work by metabolically active cells.

Assay [2] relates to resistant MDA-MB-231 mammary fat pad tumors. As to the kind of experiment: Tumor growth in orthotopic triple-negative breast cancer mice model after hydrogel implantation. The class given is in vivo, SCID mice. The conditions noted are these: day 14 post treatment. An excerpt:
In order to evaluate the efficiency of the dark-gold nanobeacon probes in sensing and in overcoming MDR in vivo, an orthotopic breast cancer mice model was developed by injecting resistant MDA-MD-231 cells to the mammary fat pad of female SCID hairless congenic mice. Efficacious and local delivery of the dark-gold nanobeacon probes was achieved by the implantation of a hydrogel disk on top of the triple-negative breast tumors. The hydrogel scaffold comprising polyamidoamine (PAMAM G5) dendrimer cross-linked with dextran aldehyde provided enhanced stability of the embedded nanoparticles.
Tumors in the mammary fat pad were induced in female SCID hairless congenic mice by injection of 5×10^6 resistant MDA-MB-231 cells stably expressing firefly luciferase, suspended in 50 μL of HBBS (Lonza, GA, USA) solution. For determination of tumor growth, individual tumors were measured using caliper, and tumor volume was calculated by Tumor volume (mm^3)=width×(length^2)/2. Treatments began when tumor volume reached about 100 mm^3. […]
In vivo imaging was used to track simultaneously tumor inhibition as measured by luciferase expression, nanobeacon probes before and after hybridization to the target and hydrogel stability monitored by fluorescence emission over a period of 14 days following hydrogel implantation.

On to `O=c1[nH]cc(F)c(=O)[nH]1` [5-FU, 5-fluorouracil], for which the “cell death after continuous exposure to drug” value in assay [1] is “absence of cell death”. Besides, the “effect on tumor (in words)” value in assay [2] was “no effect”.
